Test results: ChEMBL document CHEMBL1125522, “2,3-Epoxy-10-aza-10,11-dihydrosqualene, a high-energy intermediate analogue inhibitor of 2,3-oxidosqualene cyclase” (J Med Chem, 1992)

Legend:
Lanosterol synthase [1] = biological target: T1, Lanosterol synthase (Rattus norvegicus, UniProt P48450); test: Compound was evaluated for the inhibition of microsomal 2,3-oxidosqualene cyclase in rat liver microsomes; set-up: species or system Microsome; conditions: read-out: I50
T1 sequence (P48450 whole entry): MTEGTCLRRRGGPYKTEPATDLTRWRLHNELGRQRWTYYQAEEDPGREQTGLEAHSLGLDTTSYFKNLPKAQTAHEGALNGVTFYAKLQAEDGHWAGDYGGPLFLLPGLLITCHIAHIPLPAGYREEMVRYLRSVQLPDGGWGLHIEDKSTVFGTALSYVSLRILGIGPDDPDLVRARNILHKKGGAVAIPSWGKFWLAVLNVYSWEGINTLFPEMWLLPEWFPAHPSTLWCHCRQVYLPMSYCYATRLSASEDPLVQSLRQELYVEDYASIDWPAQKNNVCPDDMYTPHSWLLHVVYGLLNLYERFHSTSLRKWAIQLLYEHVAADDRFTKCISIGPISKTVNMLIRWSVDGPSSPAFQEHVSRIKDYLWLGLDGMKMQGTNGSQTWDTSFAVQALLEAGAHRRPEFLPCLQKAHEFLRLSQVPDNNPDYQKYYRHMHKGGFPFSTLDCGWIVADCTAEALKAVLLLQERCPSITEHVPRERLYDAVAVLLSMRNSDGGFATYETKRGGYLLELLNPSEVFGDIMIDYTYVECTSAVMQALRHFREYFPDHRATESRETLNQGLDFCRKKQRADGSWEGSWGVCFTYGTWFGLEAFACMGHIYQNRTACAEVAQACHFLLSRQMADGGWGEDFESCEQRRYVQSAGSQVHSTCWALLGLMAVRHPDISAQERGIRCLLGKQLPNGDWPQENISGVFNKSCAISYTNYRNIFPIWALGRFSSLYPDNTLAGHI

Lanosterol synthase [2] = biological target: T1, Lanosterol synthase; test: Compound was evaluated for the inhibition of microsomal 2,3-oxidosqualene-lanosterol cyclase in rat liver microsomes; set-up: species or system Microsome; conditions: read-out: I50

IC50 (Lanosterol synthase [1]) [µM] | IC50 (Lanosterol synthase [2]) [µM] | SMILES
> 20 | – | CC(C)=CCC/C(C)=C/CCC(C)=CCCCN(C)CC/C=C(/C)CCC1OC1(C)C (configuration not stated)
– | 4.8 | CC(C)=CCC/C(C)=C/CC/C(C)=C/CCCN(C)CC/C=C(\C)CCC1OC1(C)C (configuration not stated)
